The record followed here is patent US20100113484A1, “TREATING AGENT OF UROPATHY” (ASKA PHARMACEUTICAL CO., LTD., priority 2006, published 2010).

Molecules are shown by their SMILES. Where two headings read alike, the source gives them in different places.

Experiment [1] has as its target T1, human recombinant PDE9 protein (Homo sapiens, UniProt O76083).
T1 construct: made in house; host or cells: COS-1 cells, transient transfection with pcDNA 3.1 (+); supernatant of the homogenate, not purified
The experiment can be described thus: Measurement of PDE9-inhibiting activity ([3H]-cGMP hydrolysis). Type of experiment: biochemical. The protocol: Based on the base sequence of hsPDE9A1 registered with GenBank database (accession No.: AF048837), hsPDE9A1 fragment was amplified by polymerase chain reaction under the following conditions, using the following sequence (Amasham Pharmacia Biotech) as the primer and Human Prostate […] cDNA library (CLONTECH) as the template DNA, with Pfu Turbo DNA polymerase ([…]):
PCR condition: [95° C., 5 min]×1 cycle, [(95° C., 1 min), (58° C., 2 min), (72° C., 3 min)]×25 cycles, [72° C., 10 min]×1 cycle
Thus obtained hsPDE9A1 fragment was given a restricted enzymatic treatment with NheI and NotI, and thereafter inserted into pcDNA 3.1 (+) expression vector (Invitrogen) to let it serve as a human PDE9 expression vector.
Human PDE9 expression vector-transformed Escherichia coli was mass incubated to produce a large amount of human PDE9 expression vector, which was transiently transfected into COS-1 cells, with LIPOFECTAMINE 2000 Reagent (GIBCO). The cells were homogenized in ice-cooled buffer A (40 mmol/L Tris-HCl, pH7.5, 15 mmol/L benzamidine, 15 mmol/L 2-mercaptoethanol, 1 μg/mL Pepstatin A, 1 μg/mL Leupeptin, 5 mmol/L EDTA) and centrifuged at 4° C., 14,000×g for 10 minutes. The supernatant was isolated to provide human recombinant PDE9 protein solution.
This mixed solution was incubated at 30° C. for 30 minutes and the enzymatic reaction of PDE9 was terminated by heating the system in boiling water for 90 seconds. Returning the system to room temperature, 50 μL of Snake venom (SIGMA: 1 mg/mL) was added, followed by 10 minutes' incubation at 30° C., to convert the [^3H]-5′-GMP produced in the previous reaction to [^3H]-guanosine. […] Thereafter [^3H]-guanosine was eluted with 3 mL of 3 mol/L aqueous ammonia and its radiation activity was measured with liquid scintillation counter.
PDE9 inhibition of the tested compound can be calculated by the following formula: […]
From the percent inhibition at various concentration levels of each tested compound, its IC50 value against PDE9 can be determined.

The target in experiment [2] is T2, human recombinant PDE5 protein (Homo sapiens, UniProt O76074).
T2 construct: made in house; host or cells: COS-1 cells, transient transfection with pcDNA 3.1 (+); supernatant of the homogenate, not purified
As to the kind of experiment: Measurement of PDE5-inhibiting activity. Type of experiment: biochemical. The protocol:
PCR condition: [94° C., 2 min]×1 cycle, [(94° C., 30 sec), (65° C., 30 sec), (68° C., 3 min)]×25 cycles, [68° C., 6 min]×1 cycle
Thus obtained hsPDE5A1 fragment was given a restricted enzymatic treatment with XBaI and EcoRI, and thereafter inserted into pcDNA 3.1 (+) expression vector (Invitrogen) to let it serve as a human PDE5 expression vector.
Human PDE5 expression vector-transformed Escherichia coli was mass incubated to produce a large amount of human PDE5 expression vector, which was transiently transfected into COS-1 cells, with LIPOFECTAMINE 2000 Reagent (GIBCO). The cells were homogenized in ice-cooled buffer A and centrifuged at 4° C., 14,000×g for 10 minutes. The supernatant was isolated to provide human recombinant PDE5 protein solution.

Where [3] appears, read: Tables A and C, read-out: Inhibiting Activity (IC50 value) PDE9.
The mark [4] stands for this setting: Tables A and C, read-out: Inhibiting Activity (IC50 value) PDE5.
[5] abbreviates: Table B, read-out: Inhibiting Activity IC50 PDE9.
Where [6] appears, read: Table B, read-out: Inhibiting Activity IC50 PDE5.

T1 sequence (O76083 whole entry): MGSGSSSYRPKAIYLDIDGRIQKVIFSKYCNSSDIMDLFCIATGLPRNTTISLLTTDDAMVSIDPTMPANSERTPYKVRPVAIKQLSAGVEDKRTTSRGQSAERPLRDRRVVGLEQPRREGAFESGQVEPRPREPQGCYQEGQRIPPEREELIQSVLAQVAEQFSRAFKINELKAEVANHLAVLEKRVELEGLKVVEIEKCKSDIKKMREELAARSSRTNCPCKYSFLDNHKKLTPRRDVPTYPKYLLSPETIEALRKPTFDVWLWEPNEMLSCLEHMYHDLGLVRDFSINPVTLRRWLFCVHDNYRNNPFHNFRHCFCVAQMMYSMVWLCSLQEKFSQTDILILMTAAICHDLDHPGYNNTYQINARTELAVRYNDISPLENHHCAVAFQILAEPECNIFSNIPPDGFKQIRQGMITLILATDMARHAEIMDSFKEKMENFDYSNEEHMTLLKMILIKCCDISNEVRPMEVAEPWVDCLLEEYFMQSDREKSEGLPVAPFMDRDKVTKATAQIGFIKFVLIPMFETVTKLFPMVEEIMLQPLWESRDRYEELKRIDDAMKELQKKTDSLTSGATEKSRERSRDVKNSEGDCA

As for `Cc1c(C(=O)O)sc2nc(Cc3ccsc3)[nH]c(=S)c12` [A-22, 5-Methyl-2-(thiophen-3-ylmethyl)-4-thioxo-3,4-dihydrothieno-[2,3-d]pyrimidine-6-carboxylic acid], the figures for the IC50 in experiment [1] (setting [3]) and in experiment [2] (setting [4]) were 9 nM and 1640 nM, respectively.

On to `Cc1c(C(=O)O)sc2nc(Cc3cccs3)[nH]c(=S)c12` [A-23, 5-Methyl-2-(thiophen-2-ylmethyl)-4-thioxo-3,4-dihydrothieno-[2,3-d]pyrimidine-6-carboxylic acid], for which the half-inhibitory concentration (IC50) amounted to 31 nM in experiment [1] (setting [3]) and 1540 nM in experiment [2] (setting [4]).

In the case of `Cc1c(C(=O)O)sc2nc(Cc3ccccc3)[nH]c(=S)c12` [A-24, 2-Benzyl-5-methyl-4-thioxo-3,4-dihydrothieno[2,3-d]-pyrimidine-6-carboxylic acid], the IC50 was 13 nM in experiment [1] (setting [3]) and 642 nM in experiment [2] (setting [4]).

`Cc1c(C(=O)O)sc2nc(Cc3cccc(Br)c3)[nH]c(=S)c12` [A-25, 2-(3-Bromobenzyl)-5-methyl-4-thioxo-3,4-dihydrothieno-[2,3-d]pyrimidine-6-carboxylic acid]: the IC50 in experiment [1] (setting [3]) amounted to 11 nM; in experiment [2] (setting [4]), 712 nM.

Turning to `Cc1c(C(=O)O)sc2nc(Cc3cccc(C(F)(F)F)c3)[nH]c(=S)c12` [A-27, 5-Methyl-4-thioxo-2-(3-trifluoromethylbenzyl)-3,4-dihydrothieno[2,3-d]pyrimidine-6-carboxylic acid], the IC50 in experiment [1] (setting [3]) amounted to 6 nM; in experiment [2] (setting [4]) it was 3510 nM.

`Cc1c(C(=O)O)sc2nc(Cc3ccc(Cl)c(Cl)c3)[nH]c(=S)c12` [A-28, 2-(3,4-Dichlorobenzyl)-5-methyl-4-thioxo-3,4-dihydrothieno-[2,3-d]pyrimidine-6-carboxylic acid]: the concentration for half-maximal inhibition (IC50) turned out to be 4 nM in experiment [1] (setting [3]) and 73 nM in experiment [2] (setting [4]).

Turning to `Cc1c(C(=O)O)sc2nc(Cc3ccc(F)c(Cl)c3)[nH]c(=S)c12` [A-29, 2-(3-Chloro-4-fluorobenzyl)-5-methyl-4-thioxo-3,4-dihydrothieno[2,3-d]pyrimidine-6-carboxylic acid], the IC50 in experiment [1] (setting [3]) is 7 nM; in experiment [2] (setting [4]), 495 nM.

Regarding `Cc1c(C(=O)O)sc2nc(CC3=CCCCC3)[nH]c(=S)c12` [A-30, 2-(Cyclohex-1-enylmethyl)-5-methyl-4-thioxo-3,4-dihydrothieno[2,3-d]pyrimidine-6-carboxylic acid], the IC50 in experiment [1] (setting [3]) amounted to 48 nM; in experiment [2] (setting [4]), 70 nM.

Turning to `O=C(O)c1cc2c(=S)[nH]c(Cc3ccccc3)nc2s1` [A-32, 2-Benzyl-4-thioxo-3,4-dihydrothieno[2,3-d]pyrimidine-6-carboxylic acid], the results for the IC50 in experiment [1] (setting [3]) and in experiment [2] (setting [4]) were 11 nM and 8870 nM, respectively.

For `O=C(O)c1cc2c(=S)[nH]c(Cc3ccc(Cl)c(Cl)c3)nc2s1` [A-33, 2-(3,4-Dichlorobenzyl)-4-thioxo-3,4-dihydrothieno[2,3-d]-pyrimidine-6-carboxylic acid], the 50% inhibitory concentration (IC50) turned out to be 5 nM in experiment [1] (setting [3]) and 721 nM in experiment [2] (setting [4]).

Regarding `Cc1c(C(=O)O)sc2nc(Cc3ccccc3)[nH]c(=O)c12` [A-34], the 50% inhibitory concentration (IC50) in experiment [1] (setting [3]) worked out at 35 nM; in experiment [2] (setting [4]), 10000 nM.

Turning to `O=C(O)c1ccc2c(=O)[nH]c(Cc3cccc(Cl)c3)nc2c1` [B-1, 2-(3-Chlorobenzyl)-4-oxo-3,4-dihydroquinazoline-7-carboxylic acid], the concentration for half-maximal inhibition (IC50) in experiment [1] (setting [5]) is 18 nM; in experiment [2] (setting [6]) it was 6210 nM.

Take `O=C(O)c1ccc2c(=O)[nH]c(Cc3ccc(Cl)c(Cl)c3)nc2c1` [B-2, 2-(3,4-Dichlorobenzyl)-4-oxo-3,4-dihydroquinazoline-7-carboxylic acid]: the IC50 turned out to be 35 nM in experiment [1] (setting [5]) and 1440 nM in experiment [2] (setting [6]).

Consider `CC(C)c1ncc2c(=O)[nH]c3cc(Cl)ccc3n12` [C-1, 7-Chloro-1-isopropylimidazo[1,5-a]quinoxalin-4 (5H)-one], for which the results for the IC50 in experiment [1] (setting [3]) and in experiment [2] (setting [4]) were 10 nM and 1260 nM, respectively.

As to `CC(C)c1ncc2c(=O)[nH]c3cc(C(=O)N(C)C)ccc3n12` [C-2, 1-Isopropyl-N,N-dimethyl-4-oxo-4,5-dihydroimidazo[1,5-a]-quinoxaline-7-carboxamide], the IC50 in experiment [1] (setting [3]) is 42 nM; in experiment [2] (setting [4]) it was > 10000 nM.

Regarding `COc1cc2c(cc1C(=O)N(C)C)[nH]c(=O)c1cnc(C3CCCCC3)n12` [C-3, 1-Cyclohexyl-8-methoxy-N,N-dimethyl-4-oxo-4,5-dihydro-imidazo[1,5-a]quinoxaline-7-carboxamide], the figures for the IC50 in experiment [1] (setting [3]) and in experiment [2] (setting [4]) were 1.2 nM and > 10000 nM, respectively.

For `CCOc1cc2c(cc1C(=O)N(C)C)[nH]c(=O)c1cnc(C3CCCCC3)n12` [C-4], the values for the IC50 in experiment [1] (setting [3]) and in experiment [2] (setting [4]) were 3.4 nM and > 10000 nM, respectively.

Turning to `CN(C)C(=O)c1cc2[nH]c(=O)c3cnc(C4CCCCC4)n3c2cc1Cl` [C-5, 8-Chloro-1-cyclohexyl-N,N-dimethyl-4-oxo-4,5-dihydroimidazo-[1,5-a]quinoxaline-7-carboxamide], the half-maximal inhibitory concentration (IC50) in experiment [1] (setting [3]) was 3 nM; in experiment [2] (setting [4]), > 10000 nM.

As for `O=C(c1cc2[nH]c(=O)c3cnc(C4CCCCC4)n3c2cc1Cl)N1CCN(CCO)CC1` [C-6, 1-[(8-Chloro-1-cyclohexyl-4-oxo-4,5-dihydroimidazo[1,5-a]-quinoxalin-7-yl)carbonyl]-4-(2-hydroxyethyl)piperazine], the IC50 in experiment [1] (setting [3]) was found to be 8 nM; in experiment [2] (setting [4]), 7540 nM.

For the compound `CCc1ccc2c(c1)[nH]c(=O)c1cnc(CCC(=O)O)n12` [C-7, 3-(7-Ethyl-4-oxo-4,5-dihydroimidazo[1,5-a]quinoxalin-1-yl)-propionic acid], the IC50 was 2 nM in experiment [1] (setting [3]) and > 10000 nM in experiment [2] (setting [4]).

In the case of `O=C(O)CCc1ncc2c(=O)[nH]c3cc(C(F)(F)F)ccc3n12` [C-8, 3-(4-Oxo-7-trifluoromethyl-4,5-dihydroimidazo[1,5-a]-quinoxalin-1-yl)propionic acid], the 50% inhibitory concentration (IC50) is 2 nM in experiment [1] (setting [3]) and 6370 nM in experiment [2] (setting [4]).

As to `O=C(O)CCc1ncc2c(=O)[nH]c3cc(Br)ccc3n12` [C-9, 3-(7-Bromo-4-oxo-4,5-dihydroimidazo[1,5-a]quinoxalin-1-yl)-propionic acid], the IC50 was 3 nM in experiment [1] (setting [3]) and 2810 nM in experiment [2] (setting [4]).

Regarding `O=C(O)/C=C/c1ccc2c(=O)[nH]c3cc(C(F)(F)F)ccc3n12` [C-10, (E)-3-(4-oxo-7-trifluoromethyl-4,5-dihydropyrrolo[1,2-a]-quinoxalin-1-yl)acrylic acid], the IC50 in experiment [1] (setting [3]) amounted to 8 nM; in experiment [2] (setting [4]), 4560 nM.

By IC50 is commonly meant the midpoint of a concentration-inhibition curve.
